Results taken from US7964560B2, “Hepatitis C virus inhibitors” (Bristol-Myers Squibb Company, priority 2008, dated 2011).
Where two headings read alike, the source gives them in different places.

Experiments:
[1] = tested on: HCV replicon in HUH-7 cells; assay: HCV replicon FRET assay; type: cell-based, Hepatitis C virus (strain 1b); details: Hepatitis C virus, Huh-7, Table 2, HCV replicon, replicon assay format not stated, read-out: EC50
Excerpt: An HCV replicon whole cell system was established as described by Lohmann, V. et al., Science, 285(5424):110-113 (1999). This system enabled us to evaluate the effects of our HCV Protease compounds on HCV RNA replication. Briefly, using the HCV strain 1b sequence described in the Lohmann paper (Accession number: AJ238799), an HCV cDNA was synthesized by Operon Technologies, Inc. (Alameda, Calif.), and the full-length replicon was then assembled in plasmid pGem9zf(+) (Promega, Madison, Wis.) using standard molecular biology techniques. The replicon consists of (i) the HCV 5′ UTR fused to the first 12 amino acids of the capsid protein, (ii) the neomycin phosphotransferase gene (neo), (iii) the IRES from encephalomyocarditis virus (EMCV), and (iv) HCV NS3 to NS5B genes and the HCV 3′ UTR. Plasmid DNAs were linearized with ScaI and RNA transcripts were synthesized in vitro using the T7 MegaScript transcription kit (Ambion, Austin, Tex.) according to manufacturer's directions. In vitro transcripts of the cDNA were transfected into the human hepatoma cell line, HUH-7. […] Resulting cell lines were characterized for positive and negative strand RNA production and protein production over time.
The HCV replicon FRET assay was developed to monitor the inhibitory effects of compounds described in the disclosure on HCV viral replication. HUH-7 cells, constitutively expressing the HCV replicon, were grown in Dulbecco's Modified Eagle Media (DMEM) (Gibco-BRL) containing 10% Fetal calf serum (FCS) (Sigma) and 1 mg/ml G418 (Gibco-BRL). Cells were seeded the night before (1.5×10^4 cells/well) in 96-well tissue-culture sterile plates. Compound and no compound controls were prepared in DMEM containing 4% FCS, 1:100 Penicillin/Streptomysin (Gibco-BRL), 1:100 L-glutamine and 5% DMSO in the dilution plate (0.5% DMSO final concentration in the assay). Compound/DMSO mixes were added to the cells and incubated for 4 days at 37° C. After 4 days, cells were first assessed for cytotoxicity using alamar Blue (Trek Diagnostic Systems) for a CC50 reading. The toxicity of compound (CC50) was determined by adding 1/10th volume of alamar Blue to the media incubating the cells. After 4 h, the fluorescence signal from each well was read, with an excitation wavelength at 530 nm and an emission wavelength of 580 nm, using the CYTOFLUOR® Series 4000 (Perspective Biosystems). Plates were then rinsed thoroughly with Phosphate-Buffered Saline (PBS) (3 times 150 μl). The cells were lysed with 25 μl of a lysis assay reagent containing an HCV protease substrate (5× cell Luciferase cell culture lysis reagent (PROMEGA® #E153A) diluted to 1× with distilled water, NaCl added to 150 mM final, the FRET peptide substrate (as described for the enzyme assay above) diluted to 10 μM final from a 2 mM stock in 100% DMSO. The plate was then placed into the CYTOFLUOR® 4000 instrument which had been set to 340 nm excitation/490 nm emission, automatic mode for 21 cycles and the plate read in a kinetic mode. EC50 determinations were carried out as described for the IC50 determinations.

[2] = target: T1, HCV NS3/4A protease complex, BMS strain (UniProt P27958, species not given/STRAIN_BMS); assay: FRET peptide assay to monitor HCV NS3/4A proteolytic activity (BMS strain); type: biochemical, Hepatitis C virus (genotype 1a); details: Table 2, NS3/4A BMS strain
T1 construct: said of H77 and J4L6S; fused on or other part: three-lysine solubilising tail at the end of NS4A (printed for the H77 and J4L6S constructs; probably the same for BMS)
T1 sequence (P27958 1027-1657, change not shown, one chain of several): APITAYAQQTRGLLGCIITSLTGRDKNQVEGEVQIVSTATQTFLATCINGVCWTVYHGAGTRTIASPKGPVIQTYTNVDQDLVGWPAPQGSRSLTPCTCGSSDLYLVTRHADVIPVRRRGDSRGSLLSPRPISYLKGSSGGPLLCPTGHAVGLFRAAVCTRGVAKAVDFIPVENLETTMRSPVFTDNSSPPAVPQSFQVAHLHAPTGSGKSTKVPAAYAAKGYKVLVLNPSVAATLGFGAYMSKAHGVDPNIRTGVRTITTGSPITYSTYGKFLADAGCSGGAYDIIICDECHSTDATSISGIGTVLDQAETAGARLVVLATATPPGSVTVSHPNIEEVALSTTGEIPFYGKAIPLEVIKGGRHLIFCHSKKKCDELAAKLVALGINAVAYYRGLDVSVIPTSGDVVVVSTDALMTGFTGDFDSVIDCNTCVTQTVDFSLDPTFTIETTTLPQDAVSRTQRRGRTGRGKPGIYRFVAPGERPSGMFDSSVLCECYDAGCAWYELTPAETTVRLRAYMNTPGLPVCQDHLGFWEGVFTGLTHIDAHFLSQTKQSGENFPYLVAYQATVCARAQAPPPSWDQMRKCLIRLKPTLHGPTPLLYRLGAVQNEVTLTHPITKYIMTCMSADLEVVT
Excerpt: HCV […] protease complexes, derived from the BMS strain, H77 strain or J4L6S strain, were generated, as described below. These purified recombinant proteins were generated for use in a homogeneous assay (see below) to provide an indication of how effective compounds of the present disclosure would be in inhibiting HCV NS3 proteolytic activity.
Serum from an HCV-infected patient was obtained from Dr. T. Wright, San Francisco Hospital. An engineered full-length cDNA (compliment deoxyribonucleic acid) template of the HCV genome (BMS strain) was constructed from DNA fragments obtained by reverse transcription-PCR (RT-PCR) of serum RNA (ribonucleic acid) and using primers selected on the basis of homology between other genotype 1a strains. From the determination of the entire genome sequence, a genotype 1a was assigned to the HCV isolate according to the classification of Simmonds et al. (See Simmonds, P. et al., J. Clin. Microbiol., 31(6), 1493-1503 (1993)). […] The infectious clones, H77 (1a genotype) and J4L6S (1b genotype) were obtained from R. Purcell (NIH) and the sequences are published in GENBANK® (AAB67036, see Yanagi, M. et al., Proc. Natl. Acad. Sci. U.S.A., 94(16):8738-8743 (1997); AF054247, see Yanagi, M. et al., Virology, 244(1):161-172 (1998)).
The H77 and J4L6S strains were used for production of recombinant NS3/4A protease complexes. DNA encoding the recombinant HCV NS3/4A protease complex (amino acids 1027 to 1711) for these strains were manipulated as described by P. Gallinari et al. (see Gallinari, P. et al, Biochemistry, 38(17):5620-5632 (1999)). Briefly, a three-lysine solubilizing tail was added at the 3′-end of the NS4A coding region. The cysteine in the P1 position of the NS4A-NS4B cleavage site (amino acid 1711) was changed to a glycine to avoid the proteolytic cleavage of the lysine tag. Furthermore, a cysteine to serine mutation was introduced by PCR at amino acid position 1454 to prevent the autolytic cleavage in the NS3 helicase domain. The variant DNA fragment was cloned in the pET21b bacterial expression vector (Novagen) and the NS3/4A complex was expressed in Escherichia. coli strain BL21 (DE3) (Invitrogen) following the protocol described by P. Gallinari et al. (see Gallinari, P. et al., J. Virol., 72(8):6758-6769 (1998)) with modifications. Briefly, the NS3/4A protease complex expression was induced with 0.5 millimolar (mM) Isopropyl β-D-1-thiogalactopyranoside (IPTG) for 22 hours (h) at 20° C. A typical fermentation (1 Liter (L)) yielded approximately 10 grams (g) of wet cell paste. The cells were resuspended in lysis buffer (10 mL/g) consisting of 25 mM N-(2-hydroxyethyl)piperazine-N′-(2-ethane sulfonic acid) (HEPES), pH 7.5, 20% glycerol, 500 mM sodium chloride (NaCl), 0.5% Triton X-100, 1 microgram/milliliter (“μg/mL”) lysozyme, 5 mM magnesium chloride (MgCl2), 1 μg/ml DnaseI, 5 mM β-mercaptoethanol (βME), protease inhibitor-ethylenediamine tetraacetic acid (EDTA) free (Roche), homogenized and incubated for 20 minutes (min) at 4° C. The homogenate was sonicated and clarified by ultra-centrifugation at 235000 g for 1 hour (h) at 4° C. Imidazole was added to the supernatant to a final concentration of 15 mM and the pH adjusted to 8.0. The crude protein extract was loaded on a Nickel-Nitrilotriacetic acid (Ni-NTA) column pre-equilibrated with buffer B (25 mM HEPES, pH 8.0, 20% glycerol, 500 mM NaCl, 0.5% Triton X-100, 15 mM imidazole, 5 mM βME). The sample was loaded at a flow rate of 1 mL/min. The column was washed with 15 column volumes of buffer C (same as buffer B except with 0.2% Triton X-100). The protein was eluted with 5 column volumes of buffer D (same as buffer C except with 200 mM Imidazole).
NS3/4A protease complex-containing fractions were pooled and loaded on a desalting column Superdex-S200 pre-equilibrated with buffer D (25 mM HEPES, pH 7.5, 20% glycerol, 300 mM NaCl, 0.2% Triton X-100, 10 mM βME). Sample was loaded at a flow rate of 1 mL/min. […]

Row | Compound | EC50 ([1]; activity range) | IC50 ([2]; activity range) | EC50 ([1]; numeric values) | IC50 ([2]; numeric values)
1 | CCCCS[C@@]1(c2ccc(-c3ccccc3)cc2)C[C@@H](C(=O)N[C@]2(C(=O)NS(=O)(=O)C3CC3)C[C@H]2CC(F)F)N(C(=O)[C@@H](NC(=O)OC(C)(C)C)C(C)(C)C)C1 [Example 4, tert-butyl (S)-1-((2S,4R)-4-(biphenyl-4-yl)-4-(butylthio)-2-((1R,2S)-1-(cyclopropylsulfonylcarbamoyl)-2-(2,2-difluoroethyl)cyclopropylcarbamoyl)pyrrolidin-1-yl)-3,3-dimethyl-1-oxobutan-2-ylcarbamate] | 6 to 100 nM | 1 to 20 nM | – | –
2 | C=C[C@@H]1C[C@]1(NC(=O)[C@@H]1C[C@](c2ccc(-c3ccccc3)cc2)(S(=O)(=O)CCCC)CN1C(=O)[C@@H](NC(=O)OC(C)(C)C)C(C)(C)C)C(=O)NS(=O)(=O)C1CC1 (single isomer, unassigned) [Example 3] | – | – | 6.6 nM | 1 nM
